Our source for the AC50 values is ChEMBL document CHEMBL5291721, “A preclinical secondary pharmacology resource illuminates target-adverse drug reaction associations of marketed drugs” (Nat Commun, 2023).

Broadly, the AC50 is the midpoint of the concentration-response curve, whichever way the signal moves.

The structures appear in SMILES notation.

In assay [1] the target is Voltage-gated inwardly rectifying potassium channel KCNH2 (Homo sapiens, UniProt Q12809). The class given is functional. As to conditions: read-out: AC50.
Assay [2] has as its target D(3) dopamine receptor (Homo sapiens, UniProt P35462).
The target in assay [3] is T1, Muscarinic acetylcholine receptor M2 (Homo sapiens, UniProt P08172).
T1 sequence (P08172 whole entry): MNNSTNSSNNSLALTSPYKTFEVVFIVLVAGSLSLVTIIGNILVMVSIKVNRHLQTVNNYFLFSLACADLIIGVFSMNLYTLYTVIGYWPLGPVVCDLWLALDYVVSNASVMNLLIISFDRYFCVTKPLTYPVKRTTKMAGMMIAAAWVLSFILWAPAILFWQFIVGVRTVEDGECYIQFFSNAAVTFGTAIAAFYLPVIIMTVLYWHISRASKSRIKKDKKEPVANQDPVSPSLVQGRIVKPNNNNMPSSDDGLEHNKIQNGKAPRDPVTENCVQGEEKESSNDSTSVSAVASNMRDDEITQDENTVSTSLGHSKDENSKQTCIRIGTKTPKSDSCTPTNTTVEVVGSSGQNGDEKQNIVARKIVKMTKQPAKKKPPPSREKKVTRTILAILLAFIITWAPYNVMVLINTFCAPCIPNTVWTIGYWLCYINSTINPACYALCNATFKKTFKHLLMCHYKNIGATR
The class given is functional, cell-based.

Assay [4] addresses T2, Endothelin-1 receptor (Homo sapiens, UniProt P25101).
T2 sequence (P25101 whole entry): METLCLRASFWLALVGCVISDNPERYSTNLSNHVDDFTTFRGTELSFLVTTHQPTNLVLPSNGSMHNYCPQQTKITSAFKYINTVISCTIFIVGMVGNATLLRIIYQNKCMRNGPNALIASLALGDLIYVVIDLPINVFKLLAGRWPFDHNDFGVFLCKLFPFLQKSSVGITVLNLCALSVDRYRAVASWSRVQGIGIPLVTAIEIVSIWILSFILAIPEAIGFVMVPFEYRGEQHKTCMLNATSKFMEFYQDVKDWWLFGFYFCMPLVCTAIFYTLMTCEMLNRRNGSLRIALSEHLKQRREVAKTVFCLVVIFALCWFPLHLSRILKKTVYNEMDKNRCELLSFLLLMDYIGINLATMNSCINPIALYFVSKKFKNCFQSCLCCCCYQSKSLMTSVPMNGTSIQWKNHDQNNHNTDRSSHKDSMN

For assay [5], the target named is T3, Cannabinoid receptor 1 (Homo sapiens, UniProt P21554). The class given is functional, cell-based.
Assay [6] addresses 3',5'-cyclic-AMP phosphodiesterase 4D (Homo sapiens, UniProt Q08499). In kind it is functional.
Assay [7] has as its target Melanocortin receptor 3 (Homo sapiens, UniProt P41968).
The target of assay [8] is Beta-2 adrenergic receptor (Homo sapiens, UniProt P07550). In kind it is functional, cell-based.
Assay [9] has as its target T4, Type-1 angiotensin II receptor (Homo sapiens, UniProt P30556).
T4 sequence (P30556 whole entry): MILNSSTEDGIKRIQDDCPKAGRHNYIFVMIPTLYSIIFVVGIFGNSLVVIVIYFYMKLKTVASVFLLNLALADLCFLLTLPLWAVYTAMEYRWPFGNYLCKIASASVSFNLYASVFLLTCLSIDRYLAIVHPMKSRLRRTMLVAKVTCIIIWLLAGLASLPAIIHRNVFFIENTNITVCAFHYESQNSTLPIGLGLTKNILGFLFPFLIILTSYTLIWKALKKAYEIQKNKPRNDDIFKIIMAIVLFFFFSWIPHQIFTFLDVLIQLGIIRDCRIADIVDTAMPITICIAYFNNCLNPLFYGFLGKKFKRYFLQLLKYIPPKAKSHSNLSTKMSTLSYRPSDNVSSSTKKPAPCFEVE

Assay [10] concerns the target 5-hydroxytryptamine receptor 2A (Homo sapiens, UniProt P28223). In kind it is functional, cell-based.
The target in assay [11] is D(1A) dopamine receptor (Homo sapiens, UniProt P21728). In kind it is functional, cell-based.
The target of assay [12] is T5, Glucocorticoid receptor (Homo sapiens, UniProt P04150).
T5 sequence (P04150 whole entry): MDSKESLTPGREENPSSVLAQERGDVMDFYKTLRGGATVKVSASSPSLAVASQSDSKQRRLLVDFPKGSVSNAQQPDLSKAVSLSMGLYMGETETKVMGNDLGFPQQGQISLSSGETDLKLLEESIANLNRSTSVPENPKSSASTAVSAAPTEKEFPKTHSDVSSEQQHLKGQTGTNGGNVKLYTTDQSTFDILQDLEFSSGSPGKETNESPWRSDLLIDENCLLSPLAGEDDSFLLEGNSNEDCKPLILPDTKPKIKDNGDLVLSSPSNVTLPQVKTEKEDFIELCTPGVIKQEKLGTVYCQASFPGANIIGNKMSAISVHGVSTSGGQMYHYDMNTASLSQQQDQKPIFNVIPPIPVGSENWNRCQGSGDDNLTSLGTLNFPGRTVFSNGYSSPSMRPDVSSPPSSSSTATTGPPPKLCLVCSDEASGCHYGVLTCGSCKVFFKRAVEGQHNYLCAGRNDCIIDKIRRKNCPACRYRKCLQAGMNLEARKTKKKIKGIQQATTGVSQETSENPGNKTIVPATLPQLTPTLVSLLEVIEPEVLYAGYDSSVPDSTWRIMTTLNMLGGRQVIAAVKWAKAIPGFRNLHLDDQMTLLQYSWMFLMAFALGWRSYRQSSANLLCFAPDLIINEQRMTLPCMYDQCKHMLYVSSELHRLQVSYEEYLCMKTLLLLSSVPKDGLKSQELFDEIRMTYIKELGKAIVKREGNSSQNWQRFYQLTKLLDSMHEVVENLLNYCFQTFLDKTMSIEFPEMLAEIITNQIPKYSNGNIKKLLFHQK

Assay [13] addresses Histamine H1 receptor (Homo sapiens, UniProt P35367).
For assay [14], the target named is Melanocortin receptor 4 (Homo sapiens, UniProt P32245).
For assay [15], the target named is Mu-type opioid receptor (Homo sapiens, UniProt P35372).
Assay [16] has as its target T3, Cannabinoid receptor 1.
Note: assay procedure not described here.

D(1A) dopamine receptor, sequence (P21728 whole entry): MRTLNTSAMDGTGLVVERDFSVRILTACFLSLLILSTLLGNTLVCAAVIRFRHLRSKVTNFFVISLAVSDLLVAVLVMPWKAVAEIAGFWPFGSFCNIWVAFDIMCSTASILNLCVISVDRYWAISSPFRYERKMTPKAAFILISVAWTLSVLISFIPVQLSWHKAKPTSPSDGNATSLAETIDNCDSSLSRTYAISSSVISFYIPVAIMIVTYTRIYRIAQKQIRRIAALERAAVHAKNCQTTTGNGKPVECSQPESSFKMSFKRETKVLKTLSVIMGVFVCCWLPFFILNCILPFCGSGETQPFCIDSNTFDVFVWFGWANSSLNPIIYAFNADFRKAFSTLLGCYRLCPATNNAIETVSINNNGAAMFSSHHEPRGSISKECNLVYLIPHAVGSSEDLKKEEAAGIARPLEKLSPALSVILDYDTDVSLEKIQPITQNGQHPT
3',5'-cyclic-AMP phosphodiesterase 4D, sequence (Q08499 whole entry): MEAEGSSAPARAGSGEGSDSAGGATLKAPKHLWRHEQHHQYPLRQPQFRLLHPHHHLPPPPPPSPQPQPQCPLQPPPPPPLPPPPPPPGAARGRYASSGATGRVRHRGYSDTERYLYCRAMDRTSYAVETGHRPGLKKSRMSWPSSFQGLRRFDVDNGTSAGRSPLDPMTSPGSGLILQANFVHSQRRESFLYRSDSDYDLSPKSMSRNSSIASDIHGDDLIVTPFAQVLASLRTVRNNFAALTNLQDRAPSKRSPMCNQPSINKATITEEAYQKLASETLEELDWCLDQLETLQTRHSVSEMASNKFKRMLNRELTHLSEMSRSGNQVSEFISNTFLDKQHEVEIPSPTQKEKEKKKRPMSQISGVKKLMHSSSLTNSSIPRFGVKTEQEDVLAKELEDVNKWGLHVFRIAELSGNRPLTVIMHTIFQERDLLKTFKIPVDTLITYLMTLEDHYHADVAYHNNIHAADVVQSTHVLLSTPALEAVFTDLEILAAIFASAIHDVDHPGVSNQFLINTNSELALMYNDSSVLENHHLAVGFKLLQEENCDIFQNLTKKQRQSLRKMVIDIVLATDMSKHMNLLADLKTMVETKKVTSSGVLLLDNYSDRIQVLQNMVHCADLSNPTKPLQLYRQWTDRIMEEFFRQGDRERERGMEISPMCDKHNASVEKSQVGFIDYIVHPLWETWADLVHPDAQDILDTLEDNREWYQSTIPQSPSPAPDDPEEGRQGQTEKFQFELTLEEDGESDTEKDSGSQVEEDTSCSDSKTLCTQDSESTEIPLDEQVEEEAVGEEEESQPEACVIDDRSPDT
Beta-2 adrenergic receptor, sequence (P07550 whole entry): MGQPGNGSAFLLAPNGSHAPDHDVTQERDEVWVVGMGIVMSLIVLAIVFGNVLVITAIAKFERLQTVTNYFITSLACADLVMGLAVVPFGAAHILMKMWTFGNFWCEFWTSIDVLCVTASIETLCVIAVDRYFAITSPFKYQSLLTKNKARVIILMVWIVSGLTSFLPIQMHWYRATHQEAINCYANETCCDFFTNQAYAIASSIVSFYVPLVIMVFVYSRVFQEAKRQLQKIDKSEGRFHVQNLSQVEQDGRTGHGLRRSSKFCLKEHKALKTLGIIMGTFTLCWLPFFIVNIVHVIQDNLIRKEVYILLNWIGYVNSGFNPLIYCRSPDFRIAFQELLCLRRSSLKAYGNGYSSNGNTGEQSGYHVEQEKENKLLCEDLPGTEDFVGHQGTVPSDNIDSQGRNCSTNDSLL
Voltage-gated inwardly rectifying potassium channel KCNH2, sequence (Q12809 whole entry): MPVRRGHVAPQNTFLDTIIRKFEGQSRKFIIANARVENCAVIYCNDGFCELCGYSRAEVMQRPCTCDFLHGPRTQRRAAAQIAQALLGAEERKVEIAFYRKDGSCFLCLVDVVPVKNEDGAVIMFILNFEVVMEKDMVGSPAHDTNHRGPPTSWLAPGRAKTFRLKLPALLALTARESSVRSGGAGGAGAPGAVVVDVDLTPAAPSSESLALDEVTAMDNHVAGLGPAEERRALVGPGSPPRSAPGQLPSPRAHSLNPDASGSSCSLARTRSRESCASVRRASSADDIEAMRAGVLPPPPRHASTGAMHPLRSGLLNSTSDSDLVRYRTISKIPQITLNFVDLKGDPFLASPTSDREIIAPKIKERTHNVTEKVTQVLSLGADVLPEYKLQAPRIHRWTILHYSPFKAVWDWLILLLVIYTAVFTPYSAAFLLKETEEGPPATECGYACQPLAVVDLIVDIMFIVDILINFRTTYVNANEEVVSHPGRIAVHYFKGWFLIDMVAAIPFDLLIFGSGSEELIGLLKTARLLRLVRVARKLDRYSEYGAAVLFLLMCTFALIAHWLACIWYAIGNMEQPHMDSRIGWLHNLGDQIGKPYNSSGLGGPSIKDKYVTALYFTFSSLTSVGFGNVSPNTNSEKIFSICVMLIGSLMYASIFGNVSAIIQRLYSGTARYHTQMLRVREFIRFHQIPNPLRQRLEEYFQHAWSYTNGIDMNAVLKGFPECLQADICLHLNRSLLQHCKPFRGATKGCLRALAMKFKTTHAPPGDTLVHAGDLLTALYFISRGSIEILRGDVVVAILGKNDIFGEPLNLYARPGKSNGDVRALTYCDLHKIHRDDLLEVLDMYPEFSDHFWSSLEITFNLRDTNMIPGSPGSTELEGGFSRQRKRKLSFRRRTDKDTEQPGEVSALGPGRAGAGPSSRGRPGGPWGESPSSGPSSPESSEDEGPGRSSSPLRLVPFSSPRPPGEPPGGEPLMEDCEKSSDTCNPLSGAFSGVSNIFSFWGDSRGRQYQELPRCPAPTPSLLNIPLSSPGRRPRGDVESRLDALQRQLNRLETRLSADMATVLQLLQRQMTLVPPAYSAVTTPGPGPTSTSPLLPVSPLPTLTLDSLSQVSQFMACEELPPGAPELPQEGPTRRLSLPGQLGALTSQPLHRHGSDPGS
Histamine H1 receptor, sequence (P35367 whole entry): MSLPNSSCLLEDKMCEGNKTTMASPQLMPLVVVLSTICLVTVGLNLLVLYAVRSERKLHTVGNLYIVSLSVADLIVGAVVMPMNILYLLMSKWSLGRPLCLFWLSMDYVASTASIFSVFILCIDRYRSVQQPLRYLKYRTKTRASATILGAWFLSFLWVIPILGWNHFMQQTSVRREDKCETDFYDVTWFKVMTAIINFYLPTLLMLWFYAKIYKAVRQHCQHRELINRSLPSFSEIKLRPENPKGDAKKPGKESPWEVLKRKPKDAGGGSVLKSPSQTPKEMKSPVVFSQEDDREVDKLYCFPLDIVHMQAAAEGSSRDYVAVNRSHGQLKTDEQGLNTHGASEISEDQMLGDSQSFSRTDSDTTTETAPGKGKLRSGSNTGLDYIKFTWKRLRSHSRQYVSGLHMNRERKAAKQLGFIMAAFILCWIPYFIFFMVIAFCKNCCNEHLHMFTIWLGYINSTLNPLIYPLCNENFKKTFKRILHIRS
T3 sequence (P21554 whole entry): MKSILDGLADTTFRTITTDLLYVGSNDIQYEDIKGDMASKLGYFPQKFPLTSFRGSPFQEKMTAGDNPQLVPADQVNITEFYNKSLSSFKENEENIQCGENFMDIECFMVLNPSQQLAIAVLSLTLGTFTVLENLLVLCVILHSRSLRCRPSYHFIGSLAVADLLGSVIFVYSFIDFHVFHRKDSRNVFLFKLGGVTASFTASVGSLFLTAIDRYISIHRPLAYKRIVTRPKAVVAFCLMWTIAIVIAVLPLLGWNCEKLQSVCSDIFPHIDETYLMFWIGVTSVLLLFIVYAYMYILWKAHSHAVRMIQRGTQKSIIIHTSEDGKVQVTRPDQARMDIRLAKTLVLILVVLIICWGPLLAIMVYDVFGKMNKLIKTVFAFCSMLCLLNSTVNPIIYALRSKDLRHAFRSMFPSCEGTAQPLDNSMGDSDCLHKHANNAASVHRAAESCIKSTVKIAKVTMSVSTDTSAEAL
5-hydroxytryptamine receptor 2A, sequence (P28223 whole entry): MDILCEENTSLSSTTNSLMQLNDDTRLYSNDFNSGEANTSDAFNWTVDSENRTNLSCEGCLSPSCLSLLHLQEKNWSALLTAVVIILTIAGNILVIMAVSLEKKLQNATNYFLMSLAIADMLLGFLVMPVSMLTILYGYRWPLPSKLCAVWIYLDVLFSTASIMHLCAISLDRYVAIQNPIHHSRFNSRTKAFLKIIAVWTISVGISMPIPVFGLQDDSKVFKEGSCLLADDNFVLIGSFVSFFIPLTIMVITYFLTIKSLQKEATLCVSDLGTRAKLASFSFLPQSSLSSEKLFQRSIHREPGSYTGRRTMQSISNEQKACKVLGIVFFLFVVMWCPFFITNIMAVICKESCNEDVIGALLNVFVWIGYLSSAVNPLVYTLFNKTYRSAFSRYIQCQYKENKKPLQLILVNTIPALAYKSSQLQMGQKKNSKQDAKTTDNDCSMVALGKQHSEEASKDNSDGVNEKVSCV
Melanocortin receptor 3, sequence (P41968 whole entry): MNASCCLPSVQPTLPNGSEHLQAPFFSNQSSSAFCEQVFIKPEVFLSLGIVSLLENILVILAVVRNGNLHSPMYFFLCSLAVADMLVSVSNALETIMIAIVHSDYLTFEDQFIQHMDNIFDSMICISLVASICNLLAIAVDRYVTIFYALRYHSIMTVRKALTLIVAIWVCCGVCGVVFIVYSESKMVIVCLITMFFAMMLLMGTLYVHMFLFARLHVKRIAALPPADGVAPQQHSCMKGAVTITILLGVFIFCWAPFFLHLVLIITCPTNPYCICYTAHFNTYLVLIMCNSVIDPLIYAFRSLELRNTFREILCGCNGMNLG
D(3) dopamine receptor, sequence (P35462 whole entry): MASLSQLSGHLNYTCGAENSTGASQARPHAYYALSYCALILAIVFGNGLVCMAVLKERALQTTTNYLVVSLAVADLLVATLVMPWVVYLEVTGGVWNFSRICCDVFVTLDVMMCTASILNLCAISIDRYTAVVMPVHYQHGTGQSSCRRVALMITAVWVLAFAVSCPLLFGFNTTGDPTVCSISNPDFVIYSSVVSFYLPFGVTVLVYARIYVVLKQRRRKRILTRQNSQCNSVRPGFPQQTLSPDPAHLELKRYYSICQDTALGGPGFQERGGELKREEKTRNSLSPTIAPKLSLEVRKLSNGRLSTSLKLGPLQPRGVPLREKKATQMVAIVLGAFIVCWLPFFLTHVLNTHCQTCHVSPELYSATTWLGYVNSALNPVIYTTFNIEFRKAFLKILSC

For `CCCCC(C)(O)C/C=C/[C@H]1[C@H](O)CC(=O)[C@@H]1CCCCCCC(=O)OC` (some centres not stated) [MISOPROSTOL], the AC50 in assay [1], in assay [2], in [3], in assay [4], in assay [5] and in assay [6] was over 30 µM in each case. For the same compound, the concentration at half-maximal activity (AC50) in [7], in [8], in assay [9], in assay [10], in [11] and in assay [12] was over 30 µM in each case. Besides, in [13], the half-maximal activity concentration (AC50) is over 30 µM.
With `COc1ccc(C(=O)N2CCN(c3ccc4c(c3)CCC(=O)N4)CC2)cc1OC` [VESNARINONE], the concentration at half-maximal activity (AC50) in assay [1], in assay [2], in assay [3], in assay [4], in [5] and in assay [6] was over 30 µM throughout. In addition, the AC50 in assay [7] is over 30 µM; in assay [8] it was over 30 µM; in assay [9], over 30 µM; in [10], over 30 µM; in assay [11] it was over 30 µM; in assay [12], 8 µM. This compound registered an AC50 in assay [13] of over 30 µM.
Regarding `CCCOc1ccc(C(=O)OCCN(CC)CC)cc1N` [PROPARACAINE], the half-maximal activity concentration (AC50) in assay [1] was 6.4 µM; in assay [2], over 30 µM; in [3], over 30 µM; in [4], over 30 µM; in assay [5], over 30 µM; in assay [6] it was over 30 µM. The half-maximal activity concentration (AC50) in assay [7], in assay [8], in assay [9], in assay [11] and in assay [12] was over 30 µM throughout.
In the case of `Nc1nc2ccc(OC(F)(F)F)cc2s1` [RILUZOLE], the AC50 is over 30 µM in assay [2]; over 30 µM in assay [3]; over 30 µM in assay [4]; over 30 µM in assay [5]; 14 µM in assay [6]; over 30 µM in [7]. The half-maximal activity concentration (AC50) in assay [8], in assay [9], in assay [11] and in [12] was over 30 µM throughout.
For `C#C[C@]1(O)CC[C@H]2[C@@H]3CCC4=CCCC[C@@H]4[C@H]3CC[C@@]21C` [LYNESTRENOL], the concentration at half-maximal activity (AC50) in assay [1], in assay [2], in assay [3], in assay [4], in [5] and in assay [6] was over 30 µM throughout. In addition, the half-maximal activity concentration (AC50) in assay [7], in assay [8], in [9], in assay [10], in assay [11] and in assay [12] was over 30 µM throughout. This compound also displayed an AC50 in assay [13] of over 30 µM.
Take `COc1c(C)c2c(c(O)c1C/C=C(\C)CCC(=O)OCCN1CCOCC1)C(=O)OC2` [MYCOPHENOLATE MOFETIL]: the concentration at half-maximal activity (AC50) was 13 µM in assay [1]; over 30 µM in assay [2]; over 30 µM in assay [3]; over 30 µM in [4]; over 30 µM in assay [5]; over 30 µM in [6]. The AC50 in assay [7], in assay [8], in [9], in assay [11] and in [12] was over 30 µM throughout.
In the case of `CCCCCOC(=O)Nc1nc(=O)n([C@@H]2O[C@H](C)[C@@H](O)[C@H]2O)cc1F` [CAPECITABINE], the AC50 in [1], in assay [2], in assay [3], in [4], in assay [5] and in [6] was over 30 µM in each case. Besides, the AC50 in assay [7], in [8], in assay [9], in assay [10], in assay [11] and in assay [13] was over 30 µM in each case.
With `Cc1cccc(C)c1NC(=O)C1CCCCN1C` (configuration not stated) [MEPIVACAINE], the half-maximal activity concentration (AC50) in assay [1], in [2], in assay [3], in [4], in assay [5] and in assay [6] was over 30 µM each time. The half-maximal activity concentration (AC50) in assay [7], in [8], in [9], in assay [11] and in assay [12] was over 30 µM in each case.
For the compound `CCCCCN(C)CCC(O)(P(=O)(O)O)P(=O)(O)O` [IBANDRONIC ACID], the AC50 in assay [1], in assay [2], in [3], in assay [4], in [14] and in assay [5] was over 30 µM in each case. The AC50 is over 30 µM in assay [6]; over 30 µM in [7]; over 30 µM in assay [15]; 6.2 µM in assay [9]; over 30 µM in [10]; over 30 µM in assay [11]. For the same compound, the AC50 in assay [12], in assay [13] and in [16] was over 30 µM in each case.
With `CCCC(CCC)C(=O)O[C@H]1C[C@H]2CC[C@@H](C1)[N+]2(C)C` [ANISOTROPINE], the AC50 is 2.1 µM in assay [1]; over 30 µM in assay [2]; 0.63 µM in [3]; over 30 µM in assay [4]; over 30 µM in [5]; over 30 µM in assay [6]. In addition, the AC50 in assay [7], in [8], in [9], in assay [10], in [11] and in assay [13] was over 30 µM in each case.
Consider `C[C@]12CCC(=O)C=C1CC[C@@H]1[C@@H]2CC[C@@]2(C)[C@H]1CC[C@]2(C)O` [METHYLTESTOSTERONE], for which the AC50 in [1], in [2], in assay [3], in assay [4], in [5] and in assay [6] was over 30 µM in each case. For the same compound, the AC50 in [7] was over 30 µM; in assay [8] it was over 30 µM; in assay [9], over 30 µM; in assay [11], over 30 µM; in [12] it was 0.44 µM.
